PubChem BioAssay AID256 (DTP/NCI, 2004)
Where “and” joins values, the source holds several entries; their conditions need not be identical. Equal values may be shown once. Toxic doses and inconclusive results are not listed.

System: CD2F1 mice, L1210 leukemia ip, survival T/C
Experiment: NCI In Vivo Anticancer Drug Screen. Data for tumor model L1210 Leukemia (intraperitoneal) in CD2F1 (CDF1) mice
Conditions: higher = longer survival
How it was run: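 Mice carrying a transplanted tumor received test compound or vehicle alone. The value is the measurement in the treated group divided by that in the vehicle-treated control group.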

[1] = endpoint: mean survival time, dose: 100.0 mg/kg/injection, schedule: Q01DX009 (ip), vehicle: saline with Tween-80
[2] = endpoint: mean survival time, dose: 100.0 mg/kg/injection, schedule: Q04DX003 (ip), vehicle: saline with Tween-80
[3] = endpoint: mean survival time, dose: 200.0 mg/kg/injection, schedule: Q01DX009 (ip), vehicle: saline with Tween-80
[4] = endpoint: mean survival time, dose: 200.0 mg/kg/injection, schedule: Q04DX003 (ip), vehicle: saline with Tween-80
[5] = endpoint: mean survival time, dose: 400.0 mg/kg/injection, schedule: Q04DX003 (ip), vehicle: saline with Tween-80
[6] = endpoint: mean survival time, dose: 75.0 mg/kg/injection, schedule: Q01DX001 (ip), vehicle: saline
[7] = endpoint: mean survival time, dose: 100.0 mg/kg/injection, schedule: Q01DX009 (ip), vehicle: saline
[8] = endpoint: mean survival time, dose: 100.0 mg/kg/injection, schedule: Q04DX003 (ip), vehicle: saline
[9] = endpoint: mean survival time, dose: 200.0 mg/kg/injection, schedule: Q01DX009 (ip), vehicle: saline
[10] = endpoint: mean survival time, dose: 200.0 mg/kg/injection, schedule: Q04DX003 (ip), vehicle: saline
[11] = endpoint: mean survival time, dose: 400.0 mg/kg/injection, schedule: Q01DX009 (ip), vehicle: saline
[12] = endpoint: mean survival time, dose: 50.0 mg/kg/injection, schedule: Q01DX009 (ip), vehicle: saline with Tween-80
[13] = endpoint: mean survival time, dose: 50.0 mg/kg/injection, schedule: Q01DX009 (ip), vehicle: saline
[14] = endpoint: mean survival time, dose: 400.0 mg/kg/injection, schedule: Q01DX009 (ip), vehicle: saline with Tween-80

CC12CCC3(CO3)CC1CCC1C2CCC2(C)C1CCC21CO1 (centres undefined)
T/C (endpoint: mean survival time, dose: 75.0 mg/kg/injection, schedule: Q01DX001 (ip), vehicle: saline with Tween-80): 104 % of control | T/C (endpoint: mean survival time, dose: 150.0 mg/kg/injection, schedule: Q01DX001 (ip), vehicle: saline with Tween-80): 106 % of control | T/C (endpoint: mean survival time, dose: 300.0 mg/kg/injection, schedule: Q01DX001 (ip), vehicle: saline with Tween-80): 113 % of control

O=C(CCc1ccc(O)cc1)c1c(O)cc(O)cc1O
T/C (endpoint: mean survival time, dose: 50.0 mg/kg/injection, schedule: Q01DX009 (ip), vehicle: saline + alcohol): 110 % of control | T/C (endpoint: mean survival time, dose: 100.0 mg/kg/injection, schedule: Q01DX009 (ip), vehicle: saline + alcohol): 96 % of control | T/C (endpoint: mean survival time, dose: 200.0 mg/kg/injection, schedule: Q01DX009 (ip), vehicle: saline + alcohol): 89 % of control | T/C (endpoint: mean survival time, dose: 400.0 mg/kg/injection, schedule: Q01DX009 (ip), vehicle: saline + alcohol): 98 % of control

CCOC(CN(N=O)c1ccccc1C(C)C)OCC
T/C [1]: 98 % of control | T/C [2]: 103 % of control | T/C [3]: 93 % of control | T/C [4]: 98 % of control | T/C [5]: 97 % of control

CSCCC(C)(C)C
T/C [6]: 103 % of control

NC(N)=NCCCCC(N)C(=O)O (centres undefined)
T/C (endpoint: mean survival time, dose: 100.0 mg/kg/injection, schedule: Q01DX009 (ip), vehicle: acetone): 101 % of control | T/C [7]: 95 % of control | T/C [8]: 97 % of control | T/C (endpoint: mean survival time, dose: 200.0 mg/kg/injection, schedule: Q01DX009 (ip), vehicle: acetone): 96 % of control | T/C [9]: 95 % of control | T/C [10]: 100 % of control | T/C (endpoint: mean survival time, dose: 400.0 mg/kg/injection, schedule: Q01DX009 (ip), vehicle: acetone): 98 % of control | T/C [11]: 95 % of control | T/C (endpoint: mean survival time, dose: 400.0 mg/kg/injection, schedule: Q04DX003 (ip), vehicle: saline): 103 % of control

O=C(CCl)Nc1ccc([N+](=O)[O-])cc1
T/C (endpoint: mean survival time, dose: 400.0 mg/kg/injection, schedule: Q04DX002 (ip), vehicle: saline with Tween-80): 87 % of control

Nc1ccc(/C=C/c2ccnc3ccccc23)cc1
T/C (endpoint: mean survival time, dose: 4.0 mg/kg/injection, schedule: Q01DX Z (ip), vehicle: saline): 104 % of control | T/C (endpoint: mean survival time, dose: 8.0 mg/kg/injection, schedule: Q01DX Z (ip), vehicle: saline): 101 % of control | T/C (endpoint: mean survival time, dose: 16.0 mg/kg/injection, schedule: Q01DX Z (ip), vehicle: saline): 98 % of control

O=C1c2ccccc2C(=O)N1Cc1ccc([N+](=O)[O-])cc1Cl
T/C [12]: 87 % of control | T/C [1]: 98 % of control | T/C [3]: 94 % of control

CCSCCNC1=C(C)C(=O)C2=C(C1=O)[C@H](COC(N)=O)[C@]1(OC)[C@@H]3N[C@@H]3CN21
T/C (endpoint: mean survival time, dose: 6.0 mg/kg/injection, schedule: Q01DX001 (ip), vehicle: distilled water + Tween-80): 121 % of control | T/C (endpoint: mean survival time, dose: 24.0 mg/kg/injection, schedule: Q01DX001 (ip), vehicle: distilled water + Tween-80): 155 % of control

NC(CCC(=O)c1ccccn1)C(=O)O (centres undefined)
T/C [13]: 96 % of control | T/C [7]: 96 % of control | T/C [8]: 96 % of control | T/C [9]: 100 % of control | T/C [10]: 98 % of control

CN(C)CCCCO
T/C [13]: 98 % of control | T/C [7]: 98 % of control | T/C [8]: 95 % of control | T/C [9]: 97 % of control | T/C [10]: 96 % of control

Cc1ccc(C2(O)c3ccccc3C(=O)N2c2ccccc2C)cc1 (centres undefined)
T/C [1]: 100 % of control | T/C [2]: 104 % of control | T/C [3]: 93 % of control | T/C [4]: 104 % of control | T/C [14]: 102 % of control | T/C [5]: 106 % of control

CCOc1ccc(NC(=S)N(C)C)cc1
T/C [12]: 94 % of control | T/C [1]: 94 % of control | T/C [2]: 89 % of control | T/C [3]: 90 % of control | T/C [4]: 96 % of control

CCCCCCCCCC(=O)N(C)C
T/C [6]: 98 % of control | T/C (endpoint: mean survival time, dose: 150.0 mg/kg/injection, schedule: Q01DX001 (ip), vehicle: saline): 104 % of control

CCC(C(=O)O)C(=O)O.[NH2-].[NH2-].[Pt+2]
T/C (endpoint: mean survival time, dose: 12.5 mg/kg/injection, schedule: Q04DX003 (ip), vehicle: saline): 101 % of control | T/C [10]: 87 % of control | T/C (endpoint: median survival time, dose: 3.12 mg/kg/injection, schedule: Q01DX009 (ip), vehicle: saline): 108 % of control | T/C (endpoint: median survival time, dose: 100.0 mg/kg/injection, schedule: Q01DX009 (ip), vehicle: saline): 95 % of control

COc1ccc2c(c1)n([O-])c1ccccc1[n+]2=O
T/C (endpoint: median survival time, dose: 12.5 mg/kg/injection, schedule: Q01DX005 (ip), vehicle: saline with Tween-80): 116 % of control | T/C (endpoint: median survival time, dose: 12.56 mg/kg/injection, schedule: Q01DX005 (ip), vehicle: saline with Tween-80): 115 % of control | T/C (endpoint: median survival time, dose: 21.6 mg/kg/injection, schedule: Q01DX005 (ip), vehicle: saline with Tween-80): 115 % of control | T/C (endpoint: median survival time, dose: 25.0 mg/kg/injection, schedule: Q01DX005 (ip), vehicle: saline with Tween-80): 116 % of control | T/C (endpoint: median survival time, dose: 36.0 mg/kg/injection, schedule: Q01DX005 (ip), vehicle: saline with Tween-80): 222 % of control and 112 % of control | T/C (endpoint: median survival time, dose: 50.0 mg/kg/injection, schedule: Q01DX005 (ip), vehicle: saline with Tween-80): 117 % of control | T/C (endpoint: median survival time, dose: 60.0 mg/kg/injection, schedule: Q01DX005 (ip), vehicle: saline with Tween-80): 120 % of control and 287 % of control | T/C (endpoint: median survival time, dose: 100.0 mg/kg/injection, schedule: Q01DX005 (ip), vehicle: saline with Tween-80): 300 % of control | T/C (endpoint: median survival time, dose: 166.67 mg/kg/injection, schedule: Q01DX005 (ip), vehicle: saline with Tween-80): 123 % of control

CC(C)[N-]C(C)C.CC(C)[N-]C(C)C.[Cl][Pt+2][Cl]
T/C (endpoint: mean survival time, dose: 10.0 mg/kg/injection, schedule: Q04DX003 (ip), vehicle: saline with Tween-80): 102 % of control | T/C (endpoint: mean survival time, dose: 20.0 mg/kg/injection, schedule: Q04DX003 (ip), vehicle: saline with Tween-80): 97 % of control | T/C (endpoint: mean survival time, dose: 40.0 mg/kg/injection, schedule: Q04DX003 (ip), vehicle: saline with Tween-80): 105 % of control | T/C (endpoint: mean survival time, dose: 80.0 mg/kg/injection, schedule: Q04DX003 (ip), vehicle: saline with Tween-80): 97 % of control | T/C (endpoint: mean survival time, dose: 160.0 mg/kg/injection, schedule: Q04DX003 (ip), vehicle: saline with Tween-80): 97 % of control

C=CCOc1cccc(OCC=C)c1C
T/C [7]: 102 % of control | T/C [9]: 100 % of control | T/C [11]: 100 % of control

OCC1OC(n2cnc3c(NO)nc(NO)nc32)C(O)C1O (centres undefined)
T/C (endpoint: mean survival time, dose: 2.25 mg/kg/injection, schedule: Q01DX009 (ip), vehicle: saline): 115 % of control | T/C (endpoint: mean survival time, dose: 4.5 mg/kg/injection, schedule: Q01DX009 (ip), vehicle: saline): 116 % of control | T/C (endpoint: mean survival time, dose: 9.0 mg/kg/injection, schedule: Q01DX009 (ip), vehicle: saline): 116 % of control | T/C (endpoint: mean survival time, dose: 18.0 mg/kg/injection, schedule: Q01DX009 (ip), vehicle: saline): 122 % of control | T/C (endpoint: mean survival time, dose: 36.0 mg/kg/injection, schedule: Q01DX009 (ip), vehicle: saline): 192 % of control | T/C (endpoint: median survival time, dose: 36.0 mg/kg/injection, schedule: Q01DX009 (ip), vehicle: saline): 178 % of control | T/C (endpoint: median survival time, dose: 54.0 mg/kg/injection, schedule: Q01DX009 (ip), vehicle: saline): 188 % of control | T/C (endpoint: median survival time, dose: 72.0 mg/kg/injection, schedule: Q01DX009 (ip), vehicle: saline): 202 % of control

C=C1C(=O)O[C@@H]2[C@H]1CC[C@H](C)[C@]1(O)CCC(=O)[C@@]21C
T/C [1]: 98 % of control | T/C [3]: 101 % of control | T/C [14]: 110 % of control

CC(=O)Oc1ccc(Cl)cc1
T/C [1]: 95 % of control | T/C [2]: 103 % of control | T/C [3]: 98 % of control | T/C [4]: 89 % of control | T/C [5]: 89 % of control

CCCCCCCCCCCCCCCCCCN (tested in a mixture with another compound)
T/C (endpoint: mean survival time, dose: 100.0 mg/kg/injection, schedule: Q04DX002 (ip), vehicle: saline with Tween-80): 98 % of control | T/C (endpoint: mean survival time, dose: 200.0 mg/kg/injection, schedule: Q04DX002 (ip), vehicle: saline with Tween-80): 98 % of control

[Pt+2].[S-]c1ccccc1.[S-]c1ccccc1.c1ccc([PH+](c2ccccc2)c2ccccc2)cc1.c1ccc([PH+](c2ccccc2)c2ccccc2)cc1
T/C (endpoint: mean survival time, dose: 3.13 mg/kg/injection, schedule: Q04DX003 (sc), vehicle: distilled water + Tween-80): 97 % of control | T/C (endpoint: mean survival time, dose: 6.25 mg/kg/injection, schedule: Q04DX003 (sc), vehicle: distilled water + Tween-80): 110 % of control | T/C (endpoint: mean survival time, dose: 12.5 mg/kg/injection, schedule: Q04DX003 (sc), vehicle: distilled water + Tween-80): 103 % of control | T/C (endpoint: mean survival time, dose: 25.0 mg/kg/injection, schedule: Q04DX003 (sc), vehicle: distilled water + Tween-80): 97 % of control | T/C (endpoint: mean survival time, dose: 50.0 mg/kg/injection, schedule: Q04DX003 (sc), vehicle: distilled water + Tween-80): 91 % of control | T/C (endpoint: mean survival time, dose: 100.0 mg/kg/injection, schedule: Q04DX003 (sc), vehicle: distilled water + Tween-80): 89 % of control
